Results on six compounds are retold here after patent US4439460A, “Dipeptide sweetener sulfate and sulfonate salts” (G. D. Searle & Co., priority 1982, dated 1984).

Series [1] is described as follows: Thermal stability examination: oven at 170° C., HPLC analysis. The class given is physicochemical. The note with it: for degradation: after seven, fifteen or twenty-five minutes heating at about 170° C.; for % Degradation, 7 Minutes (170° C.) / % Degradation, 15 Minutes (170° C.) / Physical Appearance after 25 Minutes at 170° C. / % Degradation, 25 Minutes (170° C.): oven 170° C.; for % Degradation, 7 Minutes (170° C.) / % Degradation, 15 Minutes (170° C.) / % Degradation, 25 Minutes (170° C.): HPLC. The procedure:
Samples of the salts of Examples 1 and 2 having weights equivalent to about 40 mg of APM and reference samples (40 mg) of free base aspartylphenylalanine methyl ester (APM) and the corresponding hydrochloride dihydrogen phosphate (H2 PO4) and bisulfate (HSO4) salts having weights equivalent to about 40 mg APM were placed in individual 10 ml beakers and put in an oven pre-heated to 170° C. The samples were allowed to bake for predetermined times (7, 15 and 25 minutes) after which they were removed from the oven and analyzed by HPLC using the foregoing HPLC methods.

Series [2] is described as follows: Taste of baked dipeptide sweetened yellow cakes. Conditions: single blind conditions. The procedure: A taste test of the baked dipeptide sweetened yellow cakes can also be conducted under standard single blind conditions.
(§1) Yellow cakes were baked following a standard recipe, but substituting a dipeptide sweetener or its salt and Maltrin M-100 (a modified maltodextrin starch bulking agent) for sugar. The liquid ingredients were creamed together then folded into a sifted mixture of the dry ingredients. The resulting dough was placed in a greased 8-inch cake pan and baked at 350° for 40 minutes. Three cakes were baked in this manner; cake 1 contained (APM-H)2 SO4, cake 2 contained APM-HCl, cake 3 contained APM.

Series [3] is described as follows: Shelf life determination: accelerated storage, HPLC assay. It counts as physicochemical. The procedure: Two sets of samples of the APM sulfate salt of Example 1, APM hydrochloride and APM each having a weight equivalent to […] APM were placed in ovens which contained an open beaker of water. The first set of samples was heated at 70° and 100 percent humidity for 14.7 days. The second set of samples was heated at 85° and atmospheric humidity for 14.7 days. The samples were periodically analyzed by the HPLC method as described above in order to determine percent decomposition.

Series [4] is described as follows: Thermal stability studies in baked cake: HPLC of core samples. The class given is physicochemical. The note with it: for sweetener recovery: typical cake test, baked at 350° Fahrenheit for about thirty to forty-five minutes. As for the experimental part:
In this test sweetened yellow cakes are prepared following well-known procedures and using the appropriate ingredients but substituting dipeptide sweetener for sugar. Use of examples of salts of the invention and reference dipeptides and salts such as the hydrochloride will produce eight-inch yellow cakes which are ready for sweetener content comparison. The cakes are typically baked at 350° Fahrenheit (about 175° C.) for about thirty to forty-five minutes. Taking core sections of the sample cakes and analyzing for dipeptide sweetener content allows determination of the percent degradation of the form of the dipeptide sweetener used. In a typical thermal stability cake test, a cake baked with the sulfate salt of the invention will have about […] more dipeptide sweetener in it than a cake baked with the hydrochloride salt; compare, for example, about 34 percent sweetener recovery for the sulfate with about 25 percent for the hydrochloride.
as §1
The liquid ingredients included milk (193 g), shortening (54 g), egg (53 g, 1 egg), vanilla (3.6 g); the dry ingredients included flour (167 g), baking powder (6.9 g), salt (3.4 g), maltrin M-100 (126.5 g) dipeptide sweetener salt: (APM-H)2 SO4 (cake 1) (1.2 g), APM-HCl (cake 2) (1.2 g), APM (cake 3) (1.0 g).
Core samples were taken from each of the three cakes and the samples were analyzed by HPLC methods as described in Example 1.

Series [5] in a line: Rate of dissolution studies in beverage media. It counts as physicochemical. Conditions: for Media Dissolution Times, medium 4: ambient temperature coffee (80 ml); for Media Dissolution Times, medium 4 / Media Dissolution Times, medium 3 / Media Dissolution Times, medium 2: with stirring; for Media Dissolution Times, medium 4 / Media Dissolution Times, medium 1 / Media Dissolution Times, medium 3 / Media Dissolution Times, medium 2: salt equimolar with 57 mg APM; for Media Dissolution Times, medium 1: refrigerated carbonated water (240 ml), without stirring; for Media Dissolution Times, medium 3: refrigerated coffee (80 ml); for Media Dissolution Times, medium 2: refrigerated lemonade with no sugar (240 ml). The procedure: Samples of the salts of Examples 1, 2 and the APM hydrochloride and corresponding bisulfate and dihydrogen phosphate salts were employed to determine relative dissolution rates in beverage media. The amount of salt used in each instance was calculated to be equimolar with 57 mg of APM. The tests were conducted in four types of liquid beverage media; (1) refrigerated carbonated water (240 ml), (2) refrigerated lemonade without sugar (240 ml), (3) refrigerated coffee (80 ml), (4) coffee at ambient temperature (80 ml). The dissolution rates in medium 1 were measured without stirring and the rates in 2, 3 and 4 were measured with stirring. Dissolution was deemed complete when solid particles or a cloudy appearing medium were no longer present.

Where a SMILES comes first, the peptide text is derived from it.

For `COC(=O)[C@H](Cc1ccccc1)NC(=O)[C@@H](N)CC(=O)O` [A, aspartylphenylalanine methyl ester] (H-Asp-Phe-OMe), in series [1], the degradation was at most 85%; the “% Degradation, 7 Minutes (170° C.)” value is on record as 0%; the “% Degradation, 15 Minutes (170° C.)” value is given as 22.2%; the “Physical Appearance after 25 Minutes at 170° C.” value (“Physical Appearance” for short) is on record as “light-gray material”. Also, the “% Degradation, 25 Minutes (170° C.)” value in series [1] is 87.6%. Moreover, the “cake sweetness, panel taste testing” value in series [2] was “little sweetness and a flat taste”. In series [3] (70°, 100 percent humidity), the “HPLC Assay (% composition) APM, 6.8 days” value worked out at 95.3%; the “HPLC Assay (% composition) DKP, 6.8 days” value amounted to 1.1%; the “APM % Initial (APM remaining after 14.7 days relative to the initial APM)” value is listed as 95.9%; the “HPLC Assay (% composition) AP, 14.7 days” value is given as 0.21%. In addition, in series [3] (70°, 100 percent humidity), the “HPLC Assay (% composition) APM, 14.7 days” value was 92.6% and the “HPLC Assay (% composition) DKP, 14.7 days” value amounted to 1.2%. In addition, in series [3] (85° C., atmospheric humidity), the “HPLC Assay (% composition) APM, 6.8 days” value came out at 95.2%; the “HPLC Assay (% composition) DKP, 6.8 days” value is 1.6%; the “APM % Initial (APM remaining after 14.7 days relative to the initial APM)” value was 94.9%; the “HPLC Assay (% composition) AP, 14.7 days” value is given as “.20%”. In addition, in series [3] (85° C., atmospheric humidity), the “HPLC Assay (% composition) APM, 14.7 days” value was 91.7% and the “HPLC Assay (% composition) DKP, 14.7 days” value came out at 2.0%. For the same compound, in series [3] (initial, before storage), the “HPLC Assay (% composition) APM, Initial” value was 96.6% and the “HPLC Assay (% composition) DKP, Initial” value amounted to 1.0%.

Turning to `COC(=O)[C@H](Cc1ccccc1)NC(=O)[C@@H](N)CC(=O)O.Cl` [B, aspartylphenylalanine methyl ester hydrochloride] (H-Asp-Phe-OMe), in series [1], the degradation result was “at least 45%”; the “% Degradation, 7 Minutes (170° C.)” value is recorded as 2%; the “% Degradation, 15 Minutes (170° C.)” value worked out at 8.5%; the “Physical Appearance” value was “melted, light-brown”. For the same compound, the “% Degradation, 25 Minutes (170° C.)” value in series [1] worked out at 44.7%. Moreover, the sweetener recovery entry in series [4] is reported as “about 25%”. For the same compound, in series [5], the “Media Dissolution Times, medium 4” value is 90 s; the “Media Dissolution Times, medium 1” value came to 120 s; the “Media Dissolution Times, medium 3” value was 94 s; the “dissolution of a sweetening amount in refrigerated lemonade” value was “require significant time and stirring to dissolve”. Moreover, in series [5], the “Media Dissolution Times, medium 2” value turned out to be 52 s. For the same compound, in series [3] (70°, 100 percent humidity), the “HPLC Assay (% composition) AP, 6.8 days” value is “.33%”; the “HPLC Assay (% composition) APM, 6.8 days” value is reported as 77.7%; the “HPLC Assay (% composition) DKP, 6.8 days” value is listed as “.25%”; the “APM % Initial (APM remaining after 14.7 days relative to the initial APM)” value stood at 93.6%. In series [3] (70°, 100 percent humidity), the “HPLC Assay (% composition) AP, 14.7 days” value is “.36%”; the “HPLC Assay (% composition) APM, 14.7 days” value is recorded as 75.1%; the “HPLC Assay (% composition) DKP, 14.7 days” value is “.60%”. In series [3] (85° C., atmospheric humidity), the “HPLC Assay (% composition) AP, 6.8 days” value was determined as 1.1%; the “HPLC Assay (% composition) APM, 6.8 days” value was found to be 62.1%; the “HPLC Assay (% composition) DKP, 6.8 days” value came to 4.0%; the “APM % Initial (APM remaining after 14.7 days relative to the initial APM)” value amounted to 57.3%. Besides, in series [3] (85° C., atmospheric humidity), the “HPLC Assay (% composition) AP, 14.7 days” value is recorded as 1.6%; the “HPLC Assay (% composition) APM, 14.7 days” value is reported as 46.0%; the “HPLC Assay (% composition) DKP, 14.7 days” value stood at 3.2%. For the same compound, in series [3] (initial, before storage), the “HPLC Assay (% composition) APM, Initial” value stood at 80.2%.

With `COC(=O)[C@H](Cc1ccccc1)NC(=O)[C@@H](N)CC(=O)O.O=S(=O)(O)O` [C, aspartylphenylalanine methyl ester bisulfate] (H-Asp-Phe-OMe), in series [1], the degradation is reported as at most 85%; the “% Degradation, 7 Minutes (170° C.)” value is on record as 62.8%; the “% Degradation, 15 Minutes (170° C.)” value amounted to 78.2%; the “Physical Appearance” value is on record as “melted colorless”. Moreover, in series [1], the “% Degradation, 25 Minutes (170° C.)” value is listed as 89.2%. In series [5], the “Media Dissolution Times, medium 4” value worked out at 330 s.

For the compound `COC(=O)[C@H](Cc1ccccc1)NC(=O)[C@@H](N)CC(=O)O.O=P(O)(O)O` [D] (H-Asp-Phe-OMe), in series [1], the “% Degradation, 7 Minutes (170° C.)” value is recorded as 0.1%; the “% Degradation, 15 Minutes (170° C.)” value came to 60.6%; the “Physical Appearance” value is reported as “yellow powder”; the “% Degradation, 25 Minutes (170° C.)” value stood at 86.6%. In addition, in series [5], the “Media Dissolution Times, medium 4” value amounted to 600 s.

Take `COC(=O)[C@H](Cc1ccccc1)NC(=O)[C@@H](N)CC(=O)O.COC(=O)[C@H](Cc1ccccc1)NC(=O)[C@@H](N)CC(=O)O.O=S(=O)(O)O` [Ex. 1, Bis(hydrogen aspartylphenylalanine methyl ester) sulfate] (H-Asp-Phe-OMe): in series [1], the degradation entry is “less than 10%”; the “% Degradation, 7 Minutes (170° C.)” value is recorded as 1.3%; the “% Degradation, 15 Minutes (170° C.)” value was 0%; the “Physical Appearance” value is “white cryst. powder”. The “% Degradation, 25 Minutes (170° C.)” value in series [1] came to 5.5%. Also, the sweetener recovery entry in series [4] was “about 34%”. The “more dipeptide sweetener in cake than a cake baked with the hydrochloride salt” value in series [4] (typical thermal stability cake test) was “about 50%”. Besides, in series [2], the “cake sweetness, panel taste testing” value is listed as “approximately equal to that of sugar”. Also, in series [5], the “dissolution rate relative to the corresponding hydrochloride salt” value was “at least approximately five to six times faster”; the “Media Dissolution Times, medium 4” value stood at 22 s; the “Media Dissolution Times, medium 1” value worked out at 22 s; the “Media Dissolution Times, medium 3” value is 24 s. Further, in series [5], the “dissolution of a sweetening amount in refrigerated lemonade” value is on record as “completely dissolve in refrigerated lemonade without stirring” and the “Media Dissolution Times, medium 2” value is “About 0 seconds”. Further, in series [3] (70°, 100 percent humidity), the “HPLC Assay (% composition) APM, 6.8 days” value was determined as 83.9%; the “APM % Initial (APM remaining after 14.7 days relative to the initial APM)” value stood at 96.7%; the “HPLC Assay (% composition) AP, 14.7 days” value is given as “.20%”; the “HPLC Assay (% composition) APM, 14.7 days” value is 82.1%. Moreover, in series [3] (85° C., atmospheric humidity), the “HPLC Assay (% composition) APM, 6.8 days” value was 83.0%; the “HPLC Assay (% composition) DKP, 6.8 days” value is reported as 0.15%; the “APM % Initial (APM remaining after 14.7 days relative to the initial APM)” value stood at 95.4%; the “HPLC Assay (% composition) AP, 14.7 days” value is listed as “.20%”. For the same compound, in series [3] (85° C., atmospheric humidity), the “HPLC Assay (% composition) APM, 14.7 days” value is 80.9% and the “HPLC Assay (% composition) DKP, 14.7 days” value is listed as “.08%”. For the same compound, in series [3] (about 85° for about 15 days or 70° for about 15 days at 100 percent humidity), the “degradation in shelf life stability tests” value is “less degradation than the hydrochloride salt”. In addition, in series [3] (initial, before storage), the “HPLC Assay (% composition) APM, Initial” value is 84.8%.

Consider `COC(=O)[C@H](Cc1ccccc1)NC(=O)[C@@H](N)CC(=O)O.CS(=O)(=O)O` [Ex. 2] (H-Asp-Phe-OMe), for which, in series [1], the degradation result is on record as “about 30%”; the “% Degradation, 7 Minutes (170° C.)” value was found to be 0.0%; the “% Degradation, 15 Minutes (170° C.)” value is on record as 0.5%; the “Physical Appearance” value was “off white powder”. Besides, the “% Degradation, 25 Minutes (170° C.)” value in series [1] is given as 28.0%. Also, in series [5], the “Media Dissolution Times, medium 4” value stood at 167 s; the “Media Dissolution Times, medium 1” value worked out at 168 s; the “Media Dissolution Times, medium 2” value is 250 s.
